The source of these data is PMC11567856, “A novel peptide‐based tau aggregation inhibitor as a potential therapeutic for Alzheimer's disease and other tauopathies” (Alzheimer's & Dementia, 2024).

Where a SMILES comes first, the peptide text is derived from it. [ ]: non-standard residue; d: D form.

One assay concerns the target T1, VQIVYK (Homo sapiens, UniProt P10636).
T1 construct: ^306VQIVYK^311 hexapeptide (motif found in all six isoforms)
Description: ThT fluorescence, aggregation of VQIVYK peptide. Type of assay: biochemical. Particulars: ThT end-point 24 h; 20 µM VQIVYK, 20 µM RI‐AG03 (equimolar), 5 µM heparin, pH 7.4; alone or combined with VQIINK. How it is done: Fluorescence was measured (λex = 442 nm, λem = 483 nm), and data were normalized. […] The addition of inhibitor to the growth phase was controlled by adding an equivalent volume of buffer alone.
FIGURE 3 Lead peptide RI‐AG03 dose‐response and target specificity. […] (C) Concentration‐dependent inhibition of by Tau^Δ1‐250 by RI‐AG03. […] (E) Concentration‐dependent inhibition of by Tau^2N4R by RI‐AG03. […] (F) log10 scatter graph of Tau^2N4R inhibition by RI‐AG03 employing a curve fitting algorithm to calculate the IC50 at 5 µM. Experiments were conducted in triplicate and error bars were reported as standard deviation. One factor repeated measures ANOVA + Tukey post hoc statistical analysis: p > 0.05, *p ≤ 0.05, **p ≤ 0.01, ***p ≤ 0.001.

Another assay addresses T2, Tau^Δ1‐250 (Homo sapiens, UniProt P10636).
T2 construct: Tau^Δ1‐250 (an aggregate prone truncated version of full‐length Tau); made in house; host or cells: E. coli BL21(DE3)
Description: TEM of aggregated Tau^Δ1‐250. Type of assay: biochemical. How it is done:
Transmission electron microscopy (TEM): Tau was aggregated in similar conditions as above. Samples (10 µL) were loaded onto Formvar/Carbon 300 mesh copper grids for 3 min. The excess sample was wicked away and then negatively stained with 10 µL of filtered 2% phosphotungstic acid, pH 2, for 2 min. Grids were examined using a JEOL JEM‐1010 transmission electron microscope and were visualized and photographed at 50,000× magnification with 80.0 kV.
FIGURE 4 Lead peptide RI‐AG03 suppresses Tau β‐sheet content and forms of off‐pathway structures. […] 20 µM RI‐AG03 was added after 0, 24, and 72 h, of Tau aggregation (hatched gray bars), or not at all (solid gray bar representing end‐point aggregation of Tau^2N4R at 9 days). Note that Tau^2N4R aggregation plateaued at ∼72 h. […] One factor repeated measures ANOVA + Tukey post hoc statistical analysis: p > 0.05, *p ≤ 0.05, **p ≤ 0.01, ***p ≤ 0.001. (C) Negative stain TEM images using a Joel JEM‐1010 after the aggregation of 20 µM Tau^Δ1‐250 for 24 h, in the absence of RI‐AG03 (left), and in the presence of 20 µM RI‐AG03 (right). (D) The area and diameter of 200 large spherical species formed in the presence of 20 µM RI‐AG03 and recorded by TEM were quantified using iTEM software. […]

T2 sequence (P10636 568-758, stated change not applied): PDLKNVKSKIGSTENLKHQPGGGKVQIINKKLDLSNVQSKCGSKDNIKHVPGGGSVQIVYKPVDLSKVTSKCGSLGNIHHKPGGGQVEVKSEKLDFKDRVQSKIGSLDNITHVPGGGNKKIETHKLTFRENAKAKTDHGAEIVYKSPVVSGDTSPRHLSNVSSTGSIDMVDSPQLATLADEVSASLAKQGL

Take `CC[C@@H](C)[C@@H](NC(=O)[C@@H](CCCCNC(C)=O)NC(=O)[C@@H](Cc1ccc(O)cc1)NC(=O)[C@@H](CCCCN)NC(=O)[C@H]1CCCN1C(=O)CNC(=O)[C@@H](CCCNC(=N)N)NC(=O)[C@@H](CCCNC(=N)N)NC(=O)[C@@H](CCCNC(=N)N)NC(=O)[C@@H](CCCNC(=N)N)NC(=O)[C@@H](CCCNC(=N)N)NC(=O)[C@@H](CCCNC(=N)N)NC(=O)[C@@H](CCCNC(=N)N)NC(=O)[C@@H](CCCNC(=N)N)NC(C)=O)C(=O)N[C@H](CCC(N)=O)C(=O)N[C@@H](C(=O)NCC(=O)N[C@H](CCCNC(=N)N)C(N)=O)C(C)C` [RI‐AG03] (Ac-[dR][dR][dR][dR][dR][dR][dR][dR]G[dP][dK][dY][dK](Ac)[dI][dQ][dV]G[dR]-NH2): on VQIVYK, the “effect on aggregation of VQIVYK peptide” value is “dramatically reduced”. In addition, the “mean diameter of large spherical structures formed with the inhibitor” value on Tau^Δ1‐250 (20 µM Tau^Δ1‐250, 20 µM RI‐AG03, 24 h, TEM, 200 species quantified) was approximately 36 nm. Also, on Tau^Δ1‐250 (20 µM Tau^Δ1‐250 with heparin 24 h, equimolar (20 µM) RI‐AG03, negative stain TEM), the “fibrils seen by TEM” value is listed as “these fibrils were not observed”.
